According to the kinase profiling compilation of Christmann-Franck et al. (2016):

What follows are molecules tested against TYRO3 (human) (UniProt Q06418) (assay: radiometric filter-binding kinase assay, Kinase HotSpot). Settings: compound 0.5 µM; ATP 10 µM.
Work on `COc1cc2nccc(Oc3ccc(NC(=S)NC(=O)c4ccccc4C)cc3)c2cc1OC` yielded a residual activity of 92.2%.
`NC(=O)c1ccc(N(C(N)=O)c2c(F)cccc2F)nc1-c1ccc(F)cc1F` was tested, and the residual activity was 101%.
For `O=c1cc(-c2cccc3c2Sc2ccccc2S3)oc(N2CCOCC2)c1`, the residual activity was 105%.
`Oc1ccc(-c2nc(-c3ccc(F)cc3)c(-c3ccncc3)[nH]2)cc1` was tested, and the residual activity was 97.5%.

What follows are molecules tested against MAP3K7 TAB1 (human) (UniProt O43318+Q15750) in the same assay as above. Settings: compound 0.5 µM; ATP 10 µM.
`COc1cc2nccc(Oc3ccc(NC(=S)NC(=O)c4ccccc4C)cc3)c2cc1OC` gave a residual activity of 95.6%.
With `NC(=O)c1ccc(N(C(N)=O)c2c(F)cccc2F)nc1-c1ccc(F)cc1F` the residual activity was 105%.
With `O=c1cc(-c2cccc3c2Sc2ccccc2S3)oc(N2CCOCC2)c1` the residual activity was 84.5%.
`Oc1ccc(-c2nc(-c3ccc(F)cc3)c(-c3ccncc3)[nH]2)cc1` showed a residual activity of 97.7%.

What follows are molecules tested against CDK5 CDK5R1 p35 (human) (UniProt Q00535+Q15078) in the same assay as above. Settings: compound 0.5 µM; ATP 10 µM.
In the case of `COc1cc2nccc(Oc3ccc(NC(=S)NC(=O)c4ccccc4C)cc3)c2cc1OC`, the residual activity is reported as 100%.
`NC(=O)c1ccc(N(C(N)=O)c2c(F)cccc2F)nc1-c1ccc(F)cc1F` showed a residual activity of 99.9%.
Work on `O=c1cc(-c2cccc3c2Sc2ccccc2S3)oc(N2CCOCC2)c1` yielded a residual activity of 99.5%.
Work on `Oc1ccc(-c2nc(-c3ccc(F)cc3)c(-c3ccncc3)[nH]2)cc1` yielded a residual activity of 97.3%.

Each molecule was assayed against WNK2 (human) (UniProt Q9Y3S1) in the same assay as above. Settings: compound 0.5 µM; ATP 10 µM.
Molecule `COc1cc2nccc(Oc3ccc(NC(=S)NC(=O)c4ccccc4C)cc3)c2cc1OC` has a residual activity of 94.1%.
Molecule `NC(=O)c1ccc(N(C(N)=O)c2c(F)cccc2F)nc1-c1ccc(F)cc1F` has a residual activity of 96.4%.
For `O=c1cc(-c2cccc3c2Sc2ccccc2S3)oc(N2CCOCC2)c1`, the residual activity was 116%.
Work on `Oc1ccc(-c2nc(-c3ccc(F)cc3)c(-c3ccncc3)[nH]2)cc1` yielded a residual activity of 102%.

Each molecule was assayed against FGFR1 (human) (UniProt P11362) in the same assay as above. Settings: compound 0.5 µM; ATP 10 µM.
`COc1cc2nccc(Oc3ccc(NC(=S)NC(=O)c4ccccc4C)cc3)c2cc1OC` gave a residual activity of 75.7%.
`NC(=O)c1ccc(N(C(N)=O)c2c(F)cccc2F)nc1-c1ccc(F)cc1F` was tested, and the residual activity was 99%.
With `O=c1cc(-c2cccc3c2Sc2ccccc2S3)oc(N2CCOCC2)c1` the residual activity was 99.2%.
`Oc1ccc(-c2nc(-c3ccc(F)cc3)c(-c3ccncc3)[nH]2)cc1` gave a residual activity of 86.8%.

What follows are molecules tested against MARK2 (human) (UniProt Q7KZI7) in the same assay as above. Settings: compound 0.5 µM; ATP 10 µM.
With `COc1cc2nccc(Oc3ccc(NC(=S)NC(=O)c4ccccc4C)cc3)c2cc1OC` the residual activity was 82.3%.
`NC(=O)c1ccc(N(C(N)=O)c2c(F)cccc2F)nc1-c1ccc(F)cc1F` was tested, and the residual activity was 131%.
Work on `O=c1cc(-c2cccc3c2Sc2ccccc2S3)oc(N2CCOCC2)c1` yielded a residual activity of 86.3%.
`Oc1ccc(-c2nc(-c3ccc(F)cc3)c(-c3ccncc3)[nH]2)cc1` was tested, and the residual activity was 99%.

What follows are molecules tested against PRKG2 (human) (UniProt Q13237) in the same assay as above. Settings: compound 0.5 µM; ATP 10 µM.
PRKG2 (human), sequence (Q13237 whole entry, looked up): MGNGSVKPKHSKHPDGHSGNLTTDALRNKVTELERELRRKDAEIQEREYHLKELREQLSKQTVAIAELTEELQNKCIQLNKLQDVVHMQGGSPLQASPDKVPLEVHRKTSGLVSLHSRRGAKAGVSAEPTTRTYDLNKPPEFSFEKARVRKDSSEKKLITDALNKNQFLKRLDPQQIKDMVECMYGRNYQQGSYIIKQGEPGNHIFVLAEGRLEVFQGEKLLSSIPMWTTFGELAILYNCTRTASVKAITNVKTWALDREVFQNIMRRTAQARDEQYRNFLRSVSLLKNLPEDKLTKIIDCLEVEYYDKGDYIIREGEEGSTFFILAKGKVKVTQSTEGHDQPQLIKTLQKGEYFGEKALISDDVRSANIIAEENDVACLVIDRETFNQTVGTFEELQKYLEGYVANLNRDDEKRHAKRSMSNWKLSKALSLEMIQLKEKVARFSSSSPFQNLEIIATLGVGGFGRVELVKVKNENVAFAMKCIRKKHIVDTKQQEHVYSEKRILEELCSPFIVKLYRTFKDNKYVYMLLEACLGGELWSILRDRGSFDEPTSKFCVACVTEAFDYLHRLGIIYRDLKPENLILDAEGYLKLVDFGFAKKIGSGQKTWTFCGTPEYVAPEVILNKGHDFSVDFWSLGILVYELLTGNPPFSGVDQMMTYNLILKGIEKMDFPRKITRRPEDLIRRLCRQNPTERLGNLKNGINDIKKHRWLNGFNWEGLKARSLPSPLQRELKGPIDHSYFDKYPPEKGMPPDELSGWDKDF
For `COc1cc2nccc(Oc3ccc(NC(=S)NC(=O)c4ccccc4C)cc3)c2cc1OC`, the residual activity was 90.5%.
In the case of `NC(=O)c1ccc(N(C(N)=O)c2c(F)cccc2F)nc1-c1ccc(F)cc1F`, the residual activity is reported as 98.1%.
`O=c1cc(-c2cccc3c2Sc2ccccc2S3)oc(N2CCOCC2)c1` gave a residual activity of 92.2%.
`Oc1ccc(-c2nc(-c3ccc(F)cc3)c(-c3ccncc3)[nH]2)cc1` showed a residual activity of 94.2%.

Each molecule was assayed against GRK5 (human) (UniProt P34947) in the same assay as above. Settings: compound 0.5 µM; ATP 10 µM.
GRK5 (human), sequence (P34947 whole entry, looked up): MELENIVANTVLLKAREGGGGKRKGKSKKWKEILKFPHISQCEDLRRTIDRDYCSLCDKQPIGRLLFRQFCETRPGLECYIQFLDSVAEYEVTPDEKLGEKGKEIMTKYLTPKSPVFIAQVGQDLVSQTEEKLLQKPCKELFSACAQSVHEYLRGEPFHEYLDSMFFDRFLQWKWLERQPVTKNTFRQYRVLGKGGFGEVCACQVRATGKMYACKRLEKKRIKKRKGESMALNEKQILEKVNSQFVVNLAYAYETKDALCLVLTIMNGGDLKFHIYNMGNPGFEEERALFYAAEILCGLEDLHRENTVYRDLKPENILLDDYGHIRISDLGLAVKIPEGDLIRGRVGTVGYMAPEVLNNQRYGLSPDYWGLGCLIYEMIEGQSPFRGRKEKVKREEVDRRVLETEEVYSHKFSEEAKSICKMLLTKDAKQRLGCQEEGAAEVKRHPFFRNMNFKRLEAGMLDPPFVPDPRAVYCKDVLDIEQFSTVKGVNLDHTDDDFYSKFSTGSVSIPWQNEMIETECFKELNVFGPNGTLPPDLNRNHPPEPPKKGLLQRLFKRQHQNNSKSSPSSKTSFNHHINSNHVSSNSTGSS
`COc1cc2nccc(Oc3ccc(NC(=S)NC(=O)c4ccccc4C)cc3)c2cc1OC` was tested, and the residual activity was 98.8%.
With `NC(=O)c1ccc(N(C(N)=O)c2c(F)cccc2F)nc1-c1ccc(F)cc1F` the residual activity was 103%.
`O=c1cc(-c2cccc3c2Sc2ccccc2S3)oc(N2CCOCC2)c1` showed a residual activity of 105%.
For `Oc1ccc(-c2nc(-c3ccc(F)cc3)c(-c3ccncc3)[nH]2)cc1`, the residual activity was 104%.

Each molecule was assayed against ALK (human) (UniProt Q9UM73) in the same assay as above. Settings: compound 0.5 µM; ATP 10 µM.
Work on `COc1cc2nccc(Oc3ccc(NC(=S)NC(=O)c4ccccc4C)cc3)c2cc1OC` yielded a residual activity of 80.8%.
Work on `NC(=O)c1ccc(N(C(N)=O)c2c(F)cccc2F)nc1-c1ccc(F)cc1F` yielded a residual activity of 99.6%.
Molecule `O=c1cc(-c2cccc3c2Sc2ccccc2S3)oc(N2CCOCC2)c1` has a residual activity of 96.2%.
`Oc1ccc(-c2nc(-c3ccc(F)cc3)c(-c3ccncc3)[nH]2)cc1` gave a residual activity of 104%.

The molecules below were run against RPS6KA3 KD1 KD2 (human) (UniProt P51812) in the same assay as above. Settings: compound 0.5 µM; ATP 10 µM.
Work on `COc1cc2nccc(Oc3ccc(NC(=S)NC(=O)c4ccccc4C)cc3)c2cc1OC` yielded a residual activity of 86.9%.
With `NC(=O)c1ccc(N(C(N)=O)c2c(F)cccc2F)nc1-c1ccc(F)cc1F` the residual activity was 99.8%.
`O=c1cc(-c2cccc3c2Sc2ccccc2S3)oc(N2CCOCC2)c1` showed a residual activity of 102%.
`Oc1ccc(-c2nc(-c3ccc(F)cc3)c(-c3ccncc3)[nH]2)cc1` was tested, and the residual activity was 96.1%.

The molecules below were run against EPHB4 (human) (UniProt P54760) in the same assay as above. Settings: compound 0.5 µM; ATP 10 µM.
`COc1cc2nccc(Oc3ccc(NC(=S)NC(=O)c4ccccc4C)cc3)c2cc1OC` showed a residual activity of 103%.
`NC(=O)c1ccc(N(C(N)=O)c2c(F)cccc2F)nc1-c1ccc(F)cc1F` showed a residual activity of 83.9%.
Work on `O=c1cc(-c2cccc3c2Sc2ccccc2S3)oc(N2CCOCC2)c1` yielded a residual activity of 94.3%.
For `Oc1ccc(-c2nc(-c3ccc(F)cc3)c(-c3ccncc3)[nH]2)cc1`, the residual activity was 89%.

The molecules below were run against FGR (human) (UniProt P09769) in the same assay as above. Settings: compound 0.5 µM; ATP 10 µM.
FGR (human), sequence (P09769 whole entry, looked up): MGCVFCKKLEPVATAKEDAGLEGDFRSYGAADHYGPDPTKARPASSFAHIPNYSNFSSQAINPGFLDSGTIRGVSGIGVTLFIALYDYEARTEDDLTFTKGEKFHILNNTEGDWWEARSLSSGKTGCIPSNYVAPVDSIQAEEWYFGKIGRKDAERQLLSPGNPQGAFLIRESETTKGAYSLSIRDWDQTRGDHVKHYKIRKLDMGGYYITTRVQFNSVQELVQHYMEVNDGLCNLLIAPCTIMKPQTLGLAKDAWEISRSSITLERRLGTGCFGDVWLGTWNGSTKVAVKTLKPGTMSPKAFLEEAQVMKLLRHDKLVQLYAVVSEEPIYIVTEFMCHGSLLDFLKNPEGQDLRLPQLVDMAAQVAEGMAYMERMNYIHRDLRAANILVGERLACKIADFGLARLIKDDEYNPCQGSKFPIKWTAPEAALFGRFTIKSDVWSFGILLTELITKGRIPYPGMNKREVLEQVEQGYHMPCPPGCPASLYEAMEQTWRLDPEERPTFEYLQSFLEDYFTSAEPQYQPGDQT
Work on `COc1cc2nccc(Oc3ccc(NC(=S)NC(=O)c4ccccc4C)cc3)c2cc1OC` yielded a residual activity of 21.2%.
With `NC(=O)c1ccc(N(C(N)=O)c2c(F)cccc2F)nc1-c1ccc(F)cc1F` the residual activity was 94.7%.
`O=c1cc(-c2cccc3c2Sc2ccccc2S3)oc(N2CCOCC2)c1` showed a residual activity of 84.9%.
Molecule `Oc1ccc(-c2nc(-c3ccc(F)cc3)c(-c3ccncc3)[nH]2)cc1` has a residual activity of 93%.

The molecules below were run against GSG2 (human) (UniProt Q8TF76) in the same assay as above. Settings: compound 0.5 µM; ATP 10 µM.
In the case of `COc1cc2nccc(Oc3ccc(NC(=S)NC(=O)c4ccccc4C)cc3)c2cc1OC`, the residual activity is reported as 95.9%.
`NC(=O)c1ccc(N(C(N)=O)c2c(F)cccc2F)nc1-c1ccc(F)cc1F` showed a residual activity of 81.3%.
Work on `O=c1cc(-c2cccc3c2Sc2ccccc2S3)oc(N2CCOCC2)c1` yielded a residual activity of 106%.
With `Oc1ccc(-c2nc(-c3ccc(F)cc3)c(-c3ccncc3)[nH]2)cc1` the residual activity was 86.9%.

The molecules below were run against PLK2 (human) (UniProt Q9NYY3) in the same assay as above. Settings: compound 0.5 µM; ATP 10 µM.
In the case of `COc1cc2nccc(Oc3ccc(NC(=S)NC(=O)c4ccccc4C)cc3)c2cc1OC`, the residual activity is reported as 99.5%.
`NC(=O)c1ccc(N(C(N)=O)c2c(F)cccc2F)nc1-c1ccc(F)cc1F` showed a residual activity of 102%.
In the case of `O=c1cc(-c2cccc3c2Sc2ccccc2S3)oc(N2CCOCC2)c1`, the residual activity is reported as 84.6%.
Molecule `Oc1ccc(-c2nc(-c3ccc(F)cc3)c(-c3ccncc3)[nH]2)cc1` has a residual activity of 98.7%.

The molecules below were run against AURKA (human) (UniProt O14965) in the same assay as above. Settings: compound 0.5 µM; ATP 10 µM.
AURKA (human), sequence (O14965 whole entry, looked up): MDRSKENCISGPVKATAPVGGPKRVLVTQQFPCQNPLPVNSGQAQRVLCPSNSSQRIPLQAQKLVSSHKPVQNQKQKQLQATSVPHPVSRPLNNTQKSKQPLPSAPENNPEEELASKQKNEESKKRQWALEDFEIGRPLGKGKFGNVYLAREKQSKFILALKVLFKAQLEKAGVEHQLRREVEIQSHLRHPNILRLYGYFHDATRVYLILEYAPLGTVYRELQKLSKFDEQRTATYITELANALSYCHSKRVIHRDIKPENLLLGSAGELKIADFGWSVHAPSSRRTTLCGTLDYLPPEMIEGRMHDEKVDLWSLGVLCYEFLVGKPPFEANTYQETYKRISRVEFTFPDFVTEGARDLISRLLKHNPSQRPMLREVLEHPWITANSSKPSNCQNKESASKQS
In the case of `COc1cc2nccc(Oc3ccc(NC(=S)NC(=O)c4ccccc4C)cc3)c2cc1OC`, the residual activity is reported as 18.9%.
In the case of `NC(=O)c1ccc(N(C(N)=O)c2c(F)cccc2F)nc1-c1ccc(F)cc1F`, the residual activity is reported as 86.4%.
`O=c1cc(-c2cccc3c2Sc2ccccc2S3)oc(N2CCOCC2)c1` was tested, and the residual activity was 91.7%.
In the case of `Oc1ccc(-c2nc(-c3ccc(F)cc3)c(-c3ccncc3)[nH]2)cc1`, the residual activity is reported as 96.1%.

What follows are molecules tested against MAP4K5 (human) (UniProt Q9Y4K4) in the same assay as above. Settings: compound 0.5 µM; ATP 10 µM.
MAP4K5 (human), sequence (Q9Y4K4 whole entry, looked up): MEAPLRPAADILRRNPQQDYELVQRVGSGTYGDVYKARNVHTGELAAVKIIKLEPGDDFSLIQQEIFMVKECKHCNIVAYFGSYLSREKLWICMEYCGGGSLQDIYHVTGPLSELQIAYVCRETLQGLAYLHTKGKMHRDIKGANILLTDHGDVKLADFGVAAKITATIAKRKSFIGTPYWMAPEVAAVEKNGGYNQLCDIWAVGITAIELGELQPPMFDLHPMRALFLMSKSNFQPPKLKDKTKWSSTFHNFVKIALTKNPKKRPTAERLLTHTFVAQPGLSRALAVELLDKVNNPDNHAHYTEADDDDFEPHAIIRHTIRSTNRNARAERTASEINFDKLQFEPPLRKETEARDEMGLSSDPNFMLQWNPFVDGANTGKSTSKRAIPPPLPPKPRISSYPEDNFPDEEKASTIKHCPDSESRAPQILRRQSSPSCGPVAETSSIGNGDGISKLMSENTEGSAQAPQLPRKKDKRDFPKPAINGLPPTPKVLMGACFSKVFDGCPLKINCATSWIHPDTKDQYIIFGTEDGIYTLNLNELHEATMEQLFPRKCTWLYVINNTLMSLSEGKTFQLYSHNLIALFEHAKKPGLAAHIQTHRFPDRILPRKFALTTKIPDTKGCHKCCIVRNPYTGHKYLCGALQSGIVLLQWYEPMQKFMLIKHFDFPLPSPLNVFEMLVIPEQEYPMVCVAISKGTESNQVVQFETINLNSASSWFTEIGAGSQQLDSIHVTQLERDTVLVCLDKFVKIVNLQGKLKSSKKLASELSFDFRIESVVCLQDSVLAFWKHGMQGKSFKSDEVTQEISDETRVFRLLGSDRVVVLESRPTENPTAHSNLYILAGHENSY
In the case of `COc1cc2nccc(Oc3ccc(NC(=S)NC(=O)c4ccccc4C)cc3)c2cc1OC`, the residual activity is reported as 11.1%.
Molecule `NC(=O)c1ccc(N(C(N)=O)c2c(F)cccc2F)nc1-c1ccc(F)cc1F` has a residual activity of 98.3%.
Work on `O=c1cc(-c2cccc3c2Sc2ccccc2S3)oc(N2CCOCC2)c1` yielded a residual activity of 93.6%.
`Oc1ccc(-c2nc(-c3ccc(F)cc3)c(-c3ccncc3)[nH]2)cc1` showed a residual activity of 96.6%.

The molecules below were run against MUSK (human) (UniProt O15146) in the same assay as above. Settings: compound 0.5 µM; ATP 10 µM.
MUSK (human), sequence (O15146 whole entry, looked up): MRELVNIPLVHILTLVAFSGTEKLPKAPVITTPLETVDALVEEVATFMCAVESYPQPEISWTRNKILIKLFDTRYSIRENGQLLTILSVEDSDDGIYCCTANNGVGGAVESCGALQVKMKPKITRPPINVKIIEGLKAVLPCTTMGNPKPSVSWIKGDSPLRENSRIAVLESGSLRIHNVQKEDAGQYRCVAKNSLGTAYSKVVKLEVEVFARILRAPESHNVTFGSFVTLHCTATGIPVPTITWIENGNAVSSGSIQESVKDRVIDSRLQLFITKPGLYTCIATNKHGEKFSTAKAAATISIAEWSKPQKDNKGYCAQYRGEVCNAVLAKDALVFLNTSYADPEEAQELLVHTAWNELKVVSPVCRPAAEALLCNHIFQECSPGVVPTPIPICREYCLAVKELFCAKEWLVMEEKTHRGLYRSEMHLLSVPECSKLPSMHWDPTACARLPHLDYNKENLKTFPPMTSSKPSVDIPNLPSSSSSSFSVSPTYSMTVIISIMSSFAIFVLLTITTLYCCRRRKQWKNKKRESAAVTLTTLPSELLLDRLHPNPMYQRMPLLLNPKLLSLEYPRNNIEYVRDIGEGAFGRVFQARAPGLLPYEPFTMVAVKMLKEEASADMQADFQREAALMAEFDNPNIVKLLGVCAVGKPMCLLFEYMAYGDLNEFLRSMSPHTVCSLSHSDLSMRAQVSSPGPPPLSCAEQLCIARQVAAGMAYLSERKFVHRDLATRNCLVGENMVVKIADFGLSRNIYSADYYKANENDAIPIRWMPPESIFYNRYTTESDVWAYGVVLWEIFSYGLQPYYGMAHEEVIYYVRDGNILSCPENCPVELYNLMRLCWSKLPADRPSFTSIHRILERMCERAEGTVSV
`COc1cc2nccc(Oc3ccc(NC(=S)NC(=O)c4ccccc4C)cc3)c2cc1OC` gave a residual activity of 95.9%.
`NC(=O)c1ccc(N(C(N)=O)c2c(F)cccc2F)nc1-c1ccc(F)cc1F` gave a residual activity of 102%.
In the case of `O=c1cc(-c2cccc3c2Sc2ccccc2S3)oc(N2CCOCC2)c1`, the residual activity is reported as 89.1%.
Molecule `Oc1ccc(-c2nc(-c3ccc(F)cc3)c(-c3ccncc3)[nH]2)cc1` has a residual activity of 86.8%.

These molecules were tested against PRKCD (human) (UniProt Q05655) in the same assay as above. Settings: compound 0.5 µM; ATP 10 µM.
`COc1cc2nccc(Oc3ccc(NC(=S)NC(=O)c4ccccc4C)cc3)c2cc1OC` was tested, and the residual activity was 90.4%.
`NC(=O)c1ccc(N(C(N)=O)c2c(F)cccc2F)nc1-c1ccc(F)cc1F` was tested, and the residual activity was 104%.
In the case of `O=c1cc(-c2cccc3c2Sc2ccccc2S3)oc(N2CCOCC2)c1`, the residual activity is reported as 91.9%.
Molecule `Oc1ccc(-c2nc(-c3ccc(F)cc3)c(-c3ccncc3)[nH]2)cc1` has a residual activity of 99.3%.

The molecules below were run against PIM3 (human) (UniProt Q86V86) in the same assay as above. Settings: compound 0.5 µM; ATP 10 µM.
Work on `COc1cc2nccc(Oc3ccc(NC(=S)NC(=O)c4ccccc4C)cc3)c2cc1OC` yielded a residual activity of 98.2%.
`NC(=O)c1ccc(N(C(N)=O)c2c(F)cccc2F)nc1-c1ccc(F)cc1F` gave a residual activity of 97.7%.
`O=c1cc(-c2cccc3c2Sc2ccccc2S3)oc(N2CCOCC2)c1` was tested, and the residual activity was 52.3%.
`Oc1ccc(-c2nc(-c3ccc(F)cc3)c(-c3ccncc3)[nH]2)cc1` was tested, and the residual activity was 98.7%.

These molecules were tested against PAK4 (human) (UniProt O96013) in the same assay as above. Settings: compound 0.5 µM; ATP 10 µM.
PAK4 (human), sequence (O96013 whole entry, looked up): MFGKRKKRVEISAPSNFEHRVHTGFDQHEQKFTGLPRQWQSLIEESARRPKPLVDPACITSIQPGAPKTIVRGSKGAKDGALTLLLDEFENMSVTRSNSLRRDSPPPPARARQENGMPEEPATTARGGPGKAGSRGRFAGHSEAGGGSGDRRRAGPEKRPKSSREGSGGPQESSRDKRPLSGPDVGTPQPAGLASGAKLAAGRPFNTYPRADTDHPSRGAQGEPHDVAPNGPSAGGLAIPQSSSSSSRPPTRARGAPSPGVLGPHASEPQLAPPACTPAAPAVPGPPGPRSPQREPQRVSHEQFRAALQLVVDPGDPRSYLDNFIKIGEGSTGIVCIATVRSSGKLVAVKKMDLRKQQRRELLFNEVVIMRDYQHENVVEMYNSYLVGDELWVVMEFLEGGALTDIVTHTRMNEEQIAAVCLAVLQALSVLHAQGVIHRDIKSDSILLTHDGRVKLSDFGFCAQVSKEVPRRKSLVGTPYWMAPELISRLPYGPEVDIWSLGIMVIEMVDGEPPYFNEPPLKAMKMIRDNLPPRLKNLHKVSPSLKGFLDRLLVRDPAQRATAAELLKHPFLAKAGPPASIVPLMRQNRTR
`COc1cc2nccc(Oc3ccc(NC(=S)NC(=O)c4ccccc4C)cc3)c2cc1OC` gave a residual activity of 100%.
With `NC(=O)c1ccc(N(C(N)=O)c2c(F)cccc2F)nc1-c1ccc(F)cc1F` the residual activity was 92.6%.
With `O=c1cc(-c2cccc3c2Sc2ccccc2S3)oc(N2CCOCC2)c1` the residual activity was 116%.
Molecule `Oc1ccc(-c2nc(-c3ccc(F)cc3)c(-c3ccncc3)[nH]2)cc1` has a residual activity of 98.6%.

What follows are molecules tested against SGK2 (human) (UniProt Q9HBY8) in the same assay as above. Settings: compound 0.5 µM; ATP 10 µM.
SGK2 (human), sequence (Q9HBY8 whole entry, looked up): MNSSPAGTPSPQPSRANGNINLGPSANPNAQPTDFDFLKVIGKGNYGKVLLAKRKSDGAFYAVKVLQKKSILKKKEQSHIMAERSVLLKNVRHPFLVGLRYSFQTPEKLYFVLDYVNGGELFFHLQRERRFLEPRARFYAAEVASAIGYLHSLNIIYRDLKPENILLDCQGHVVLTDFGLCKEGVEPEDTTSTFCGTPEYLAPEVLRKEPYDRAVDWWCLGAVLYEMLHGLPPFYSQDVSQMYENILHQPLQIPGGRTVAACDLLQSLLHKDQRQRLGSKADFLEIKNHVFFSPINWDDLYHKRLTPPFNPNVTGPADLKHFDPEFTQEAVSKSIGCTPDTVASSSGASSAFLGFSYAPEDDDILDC
`COc1cc2nccc(Oc3ccc(NC(=S)NC(=O)c4ccccc4C)cc3)c2cc1OC` showed a residual activity of 97.3%.
Molecule `NC(=O)c1ccc(N(C(N)=O)c2c(F)cccc2F)nc1-c1ccc(F)cc1F` has a residual activity of 107%.
Molecule `O=c1cc(-c2cccc3c2Sc2ccccc2S3)oc(N2CCOCC2)c1` has a residual activity of 115%.
Molecule `Oc1ccc(-c2nc(-c3ccc(F)cc3)c(-c3ccncc3)[nH]2)cc1` has a residual activity of 99.6%.
